According to PubChem BioAssay (NCI):
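96-well plates; 48 h exposure; 5 concentrations. Endpoints by linear interpolation between flanking doses. Not reached: highest tested concentration assigned. TGI: concentration producing complete growth inhibition.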

Tests used:
Assay in all cases: NCI tumour cell line growth inhibition, 48 h
[1] = tested on: UO-31 renal
[2] = tested on: HOP-62 NSCLC
[3] = tested on: 786-0 renal
[4] = tested on: ACHN renal
[5] = tested on: RPMI-8226 leukemia
[6] = tested on: UACC-257 melanoma
[7] = tested on: NCI-H23 lung
[8] = tested on: SK-MEL-2 melanoma
[9] = tested on: HL-60(TB) leukemia
[10] = tested on: A549 NSCLC
[11] = tested on: NCI-H460 lung
[12] = tested on: HOP-92 NSCLC
[13] = tested on: SR leukemia
[14] = tested on: NCI/ADR-RES ovarian
[15] = tested on: KM12 colon
[16] = tested on: K-562 leukemia
[17] = tested on: PC-3 prostate
[18] = tested on: DU-145 prostate
[19] = tested on: BT-549 breast
[20] = tested on: SK-MEL-28 melanoma
[21] = tested on: OVCAR-8 ovarian
[22] = tested on: HCT-116 colon
[23] = tested on: MOLT-4 leukemia
[24] = tested on: SF-539 CNS
[25] = tested on: MDA-N
[26] = tested on: IGROV1 ovarian
[27] = tested on: SNB-19 CNS
[28] = tested on: NCI-H522 lung
[29] = tested on: COLO 205 colon
[30] = tested on: MCF7 breast
[31] = tested on: SK-MEL-5 melanoma
[32] = tested on: U251 CNS
[33] = tested on: LOX IMVI melanoma
[34] = tested on: M14 melanoma
[35] = tested on: OVCAR-5 ovarian
[36] = tested on: MALME-3M melanoma
[37] = tested on: HT29 colon
[38] = tested on: CAKI-1 renal
[39] = tested on: TK-10 renal
[40] = tested on: MDA-MB-435
[41] = tested on: OVCAR-4 ovarian
[42] = tested on: T-47D breast
[43] = tested on: SF-295 CNS
[44] = tested on: CCRF-CEM leukemia
[45] = tested on: EKVX NSCLC
[46] = tested on: SK-OV-3 ovarian
[47] = tested on: A498 renal
[48] = tested on: UACC-62 melanoma
[49] = tested on: SN12C renal
[50] = tested on: RXF 393 renal
[51] = tested on: OVCAR-3 ovarian
[52] = tested on: NCI-H226 lung
[53] = tested on: SF-268 CNS
[54] = tested on: HS 578T breast
[55] = tested on: MDA-MB-231 breast
[56] = tested on: SW-620 colon
[57] = tested on: HCC-2998 colon
[58] = tested on: HCT-15 colon
[59] = tested on: SNB-75 CNS

## CC(C)SC(=S)Sc1c(Cl)c(Cl)nc(Cl)c1Cl
[1]
  TGI: 21.2 µM
[2]
  TGI: 18.4 µM
[3]
  TGI: 5.54 µM
[4]
  TGI: 18.6 µM
[5]
  TGI: 4.29 µM
[6]
  TGI: 9.57 µM
[7]
  TGI: 29 µM
[8]
  TGI: 22.4 µM
[9]
  TGI: 5.61 µM
[10]
  TGI: 40.8 µM
[11]
  TGI: 36.6 µM
[12]
  TGI: 21.4 µM
[13]
  TGI: 11.3 µM
[14]
  TGI: 61.2 µM
[15]
  TGI: 21.4 µM
[16]
  TGI: 10.7 µM
[17]
  TGI: 16 µM
[18]
  TGI: 11.3 µM
[19]
  TGI: 34.2 µM
[20]
  TGI: > 100 µM
[21]
  TGI: 10.5 µM
[22]
  TGI: 22.4 µM
[23]
  TGI: 8.69 µM
[24]
  TGI: 24.8 µM
[25]
  TGI: 11.1 µM
[26]
  TGI: 20.1 µM
[27]
  TGI: 21.1 µM
[28]
  TGI: 11.6 µM
[29]
  TGI: 24.7 µM
[30]
  TGI: 15.7 µM
[31]
  TGI: 29.1 µM
[32]
  TGI: 14 µM
[33]
  TGI: 6.68 µM
[34]
  TGI: 26.7 µM
[35]
  TGI: 33.1 µM
[36]
  TGI: 30.1 µM
[37]
  TGI: 12.5 µM
[38]
  TGI: 8.49 µM
[39]
  TGI: 18.4 µM
[40]
  TGI: 19.6 µM
[41]
  TGI: 28.4 µM
[42]
  TGI: 4.39 µM
[43]
  TGI: 30.5 µM
[44]
  TGI: 6.09 µM
[45]
  TGI: 22.8 µM
[46]
  TGI: 32.7 µM
[47]
  TGI: 31.5 µM
[48]
  TGI: 24.1 µM
[49]
  TGI: 27.6 µM
[50]
  TGI: 9.17 µM
[51]
  TGI: 3.52 µM
[52]
  TGI: 50.3 µM
[53]
  TGI: 32.9 µM
[54]
  TGI: 44.7 µM
[55]
  TGI: 26.7 µM
[56]
  TGI: 15.9 µM
[57]
  TGI: 12.7 µM
[58]
  TGI: > 34.1 µM

## COC(=O)C(Cc1ccc2c(c1)CCC2)Cc1ccc2c(c1)CCC2
[1]
  TGI: > 100 µM
[2]
  TGI: > 100 µM
[3]
  TGI: > 100 µM
[59]
  TGI: > 100 µM
[4]
  TGI: > 100 µM
[5]
  TGI: > 100 µM
[6]
  TGI: > 100 µM
[7]
  TGI: > 100 µM
[8]
  TGI: > 100 µM
[9]
  TGI: 88.8 µM
[10]
  TGI: > 100 µM
[11]
  TGI: > 100 µM
[12]
  TGI: > 100 µM
[13]
  TGI: > 100 µM
[14]
  TGI: > 100 µM
[15]
  TGI: > 100 µM
[16]
  TGI: > 100 µM
[17]
  TGI: > 100 µM
[18]
  TGI: > 100 µM
[19]
  TGI: > 100 µM
[20]
  TGI: > 100 µM
[21]
  TGI: > 100 µM
[22]
  TGI: > 100 µM
[23]
  TGI: > 100 µM
[24]
  TGI: > 100 µM
[25]
  TGI: > 100 µM
[26]
  TGI: > 100 µM
[27]
  TGI: > 100 µM
[28]
  TGI: > 100 µM
[29]
  TGI: > 100 µM
[30]
  TGI: > 100 µM
[31]
  TGI: > 100 µM
[32]
  TGI: > 100 µM
[33]
  TGI: 60.4 µM
[34]
  TGI: > 100 µM
[35]
  TGI: > 100 µM
[37]
  TGI: > 100 µM
[39]
  TGI: > 100 µM
[40]
  TGI: > 100 µM
[41]
  TGI: > 100 µM
[42]
  TGI: > 100 µM
[43]
  TGI: > 100 µM
[44]
  TGI: > 100 µM
[45]
  TGI: > 100 µM
[46]
  TGI: > 100 µM
[47]
  TGI: > 100 µM
[48]
  TGI: > 100 µM
[49]
  TGI: > 100 µM
[50]
  TGI: > 100 µM
[51]
  TGI: > 100 µM
[52]
  TGI: > 100 µM
[53]
  TGI: > 100 µM
[54]
  TGI: > 100 µM
[55]
  TGI: > 100 µM
[56]
  TGI: > 100 µM
[58]
  TGI: > 100 µM

## CC1=CCC([C@@](C)(O)CCCC(C)(C)N=C=S)CC1 (stereo partly specified)
[1]
  TGI: 26.7 µM
[2]
  TGI: 40 µM
[3]
  TGI: 31.6 µM
[59]
  TGI: 32.4 µM
[4]
  TGI: 30.5 µM
[5]
  TGI: 67.3 µM
[6]
  TGI: 35 µM
[7]
  TGI: 38.5 µM
[8]
  TGI: 33.3 µM
[9]
  TGI: 43.8 µM
[10]
  TGI: 34.2 µM
[11]
  TGI: 33 µM
[12]
  TGI: 33.1 µM
[13]
  TGI: 41.7 µM
[14]
  TGI: 38.9 µM
[15]
  TGI: 29.5 µM
[16]
  TGI: 42.4 µM
[17]
  TGI: 33 µM
[18]
  TGI: 30.7 µM
[19]
  TGI: 33.5 µM
[20]
  TGI: 30.2 µM
[21]
  TGI: 32.7 µM
[22]
  TGI: 26.6 µM
[23]
  TGI: 50.5 µM
[24]
  TGI: 33.3 µM
[25]
  TGI: 32.4 µM
[26]
  TGI: 40.3 µM
[27]
  TGI: 31.1 µM
[28]
  TGI: 33.8 µM
[29]
  TGI: 30.2 µM
[30]
  TGI: 34.6 µM
[31]
  TGI: 29.2 µM
[32]
  TGI: 32.9 µM
[33]
  TGI: 29.6 µM
[34]
  TGI: 30.8 µM
[35]
  TGI: 34.9 µM
[36]
  TGI: 28.3 µM
[37]
  TGI: 32.9 µM
[39]
  TGI: 37.8 µM
[40]
  TGI: 31 µM
[41]
  TGI: 30.9 µM
[42]
  TGI: 44.2 µM
[43]
  TGI: 36.3 µM
[44]
  TGI: 48.9 µM
[45]
  TGI: 32.5 µM
[46]
  TGI: 32.9 µM
[47]
  TGI: 28.7 µM
[48]
  TGI: 34.7 µM
[49]
  TGI: 35.6 µM
[50]
  TGI: 29.6 µM
[51]
  TGI: 32.6 µM
[52]
  TGI: 32.1 µM
[53]
  TGI: 31.6 µM
[54]
  TGI: 55.4 µM
[55]
  TGI: 36.7 µM
[56]
  TGI: 32.6 µM
[57]
  TGI: 32.4 µM
[58]
  TGI: 34.2 µM

## O=C(O)CN1CCN2CCCCCN(CC1)CCN(CC(=O)O)CC2
[1]
  TGI: > 100 µM
[2]
  TGI: > 100 µM
[3]
  TGI: > 100 µM
[59]
  TGI: 95.3 µM
[4]
  TGI: > 100 µM
[5]
  TGI: > 100 µM
[6]
  TGI: > 100 µM
[8]
  TGI: > 100 µM
[9]
  TGI: 33.4 µM
[10]
  TGI: > 100 µM
[11]
  TGI: > 100 µM
[12]
  TGI: > 100 µM
[13]
  TGI: > 100 µM
[14]
  TGI: > 100 µM
[15]
  TGI: > 100 µM
[16]
  TGI: > 100 µM
[17]
  TGI: > 100 µM
[18]
  TGI: > 100 µM
[19]
  TGI: > 100 µM
[20]
  TGI: > 100 µM
[21]
  TGI: > 100 µM
[22]
  TGI: > 100 µM
[24]
  TGI: > 100 µM
[25]
  TGI: > 100 µM
[26]
  TGI: > 100 µM
[27]
  TGI: > 100 µM
[28]
  TGI: > 100 µM
[29]
  TGI: > 100 µM
[30]
  TGI: > 100 µM
[31]
  TGI: > 100 µM
[32]
  TGI: > 100 µM
[33]
  TGI: > 100 µM
[34]
  TGI: > 100 µM
[35]
  TGI: > 100 µM
[36]
  TGI: > 100 µM
[37]
  TGI: > 100 µM
[38]
  TGI: > 100 µM
[39]
  TGI: > 100 µM
[40]
  TGI: > 100 µM
[41]
  TGI: > 100 µM
[42]
  TGI: > 100 µM
[43]
  TGI: > 100 µM
[44]
  TGI: > 100 µM
[45]
  TGI: > 100 µM
[46]
  TGI: > 100 µM
[47]
  TGI: > 100 µM
[48]
  TGI: > 100 µM
[49]
  TGI: > 100 µM
[51]
  TGI: > 100 µM
[52]
  TGI: > 100 µM
[54]
  TGI: > 100 µM
[55]
  TGI: > 100 µM
[56]
  TGI: > 100 µM
[58]
  TGI: > 100 µM
